Read-outs that look alike come from different tables or passages of the source.
Columns and labels:
CYP2D6 = target: T1, CYP2D6 (Homo sapiens, UniProt P10635); assay: CYP450 inhibition, specific substrate approach in human liver microsomes: CYP2D6; format: in vitro ADME
T1 construct: using a specific substrate approach in human liver microsomes; from tissue; host or cells: human liver microsomes
Description: (§1) CYP450 Isoform Inhibition Using a Specific Substrate Approach
(§2) The present study is a “Tier 2” screen to assess potential enzyme inhibition at a test compound concentration of 20 μM using a specific substrate approach in human liver microsomes.
(§3) The substrate specific enzyme inhibition study relies on the formation of a metabolite that is mediated by a specific CYP450 isoform using human liver microsomes. In the current study, the following reactions were monitored to assess interactions with specific CYP450 isoforms. A known inhibitor of each isoform was included in each assay as a positive control. The following IC50 values have been reported in the literature using equivalent assay conditions for each CYP450 isoform:
(§4) The reaction was initiated by the addition of an NADPH-regenerating system and was quenched by the addition of acetonitrile prior to determining the concentration (and apparent rate of formation) of the specific metabolite by LC/MS.
(§5) The IC50 was deemed to be the concentration at which there was a 50% reduction in the amount of metabolite formed, relative to the maximal extent of formation.

CYP3A4 = CYP3A4 (Homo sapiens, UniProt P08684); assay: CYP450 inhibition, specific substrate approach in human liver microsomes: CYP3A4; format: in vitro ADME; design: using a specific substrate approach in human liver microsomes; from tissue; host or cells: human liver microsomes
Description: as §1, §2, §3, §4, §5

[1] = In Vitro Metabolism in Human Liver Microsomes (predicted EH); format: in vitro ADME
Description: (§6) [formula] [formula] [formula] [formula] • Cbrain=concentration of compound in brain parenchyma (ng/g) • Cbrain homogenate=concentration of compound in brain homogenate (ng/g) • Cbrain vasculature=concentration of compound in brain vasculature (ng/g) • CPlasma=concentration of compound in plasma (ng/mL) • VP=brain plasma volume (26 μL/g for male Swiss Outbred mice) • B:P=brain-to-plasma ratio • Papp=apparent permeability coefficient of compound permeating the blood-brain barrier • ∫0^tcplasmadt=concentration of compound in plasma from time zero to 5 min post-dose (equivalent to the 5 min post-dose plasma concentration, assuming no back diffusion from brain to plasma within this time period) • A=surface area of capillaries forming the blood-brain barrier (240 cm^2/g brain weight for mouse) Assay 7 In Vitro Metabolism in Human Liver Microsomes
The solubility of test compounds and their recovery from the incubation media were confirmed prior to the metabolic assay. Metabolic stability was performed by incubating test compounds individually (1 μM) at 37° C. with human liver microsomes. The metabolic reaction was initiated by the addition of a NADPH-regenerating system (i.e. NADPH is the cofactor required for CYP450-mediated metabolism) and quenched at various time points over the incubation period by the addition of acetonitrile. Additional samples with dual co-factors, i.e. NADPH and UDPGA (the co-factor for glucuronidation), were also included in the incubation for the qualitative assessment of the potential for glucuronide formation. The relative loss of parent compound and formation of metabolic products was monitored by LC/MS using a Waters/Micromass LCT mass spectrometer.
Test compound concentration versus time data were fitted to an exponential decay function to determine the first-order rate constant for substrate depletion. In cases where clear deviation from first-order kinetics was evident, only the initial linear portion of the profile was utilised to determine the degradation rate constant (k). Each substrate depletion rate constant was then used to calculate: [1] degradation half-life, [2] an in vitro intrinsic clearance value (CLint,in vitro); [3] a predicted in vivo intrinsic clearance value (CLint); and [4] a predicted in vivo hepatic extraction ratio (EH).
[formula] • The following scaling parameters were assumed for estimating metabolic stability parameters:
Predictions of In Vivo Hepatic Clearance and Hepatic Extraction Ratios:
The microsome-predicted hepatic extraction ratios (EH) obtained based on the relative rate of degradation of the test compound in vitro, lead to test compounds being classified as low (<0.3), intermediate (0.3-0.7), high (0.7-0.95) or very high (>0.95) extraction compounds. The assumptions underlying this classification are stated below.
The use of hepatic microsomes in the prediction of the in vivo hepatic clearance and extraction ratio is based on a number of assumptions (Obach, 1999; Drug Metab. Dispos. 27: 1350-1359):
1) Hepatic (microsomal) metabolic clearance is the major clearance mechanism for compounds in vivo;
2) NADPH-dependent oxidative metabolism predominates over other metabolic routes (i.e. direct conjugative metabolism, reduction, hydrolysis, etc.); and,
3) Rates of metabolism and enzyme activities in vitro are truly reflective of those that exist in vivo.
Calculations of intrinsic clearance are based on the “in vitro […] method” (Obach, 1999), which has two further inherent assumptions:
1) The substrate concentration employed is well below the apparent KM for substrate turnover; and,
2) There is no significant product inhibition, nor is there any mechanism based inactivation of enzyme.
Data should be considered within these terms of reference.

[2] = Blood Brain Barrier Penetration (brain to plasma ratio); format: in vivo; conditions: male, Swiss Outbred, mouse, brain and plasma; for Kp at 5 min / Kp at 1 h: 150 μg/mouse, IV, read-out: Brain to Plasma Ratio (IV) (B:P); for Kp at 1 h: at 60 min; for Kp at 0.5 h / Kp at 4 h: Oral dosing, read-out: Brain to Plasma Ratio (B:P); for Kp at 0.5 h: at 30 min; for Kp at 4 h: at 240 min
Excerpt: [formula] [formula] [formula] • CLtotal=total plasma clearance after IV administration • Vdβ=volume of distribution during the elimination phase after IV administration • BA=oral bioavailability • AUCIV=area under the plasma concentration versus time profile from time zero to infinity after IV administration • AUCoral=area under the plasma concentration versus time profile from time zero to infinity after oral administration • β=terminal elimination rate constant after IV administration Assay 6. Blood Brain Barrier Penetration
A bolus injection of each of the test compound (50 μL of a 3 mg/mL aqueous solution containing 40% propylene glycol and 10% ethanol) was administered by tail vein injection to male Swiss Outbred mice (5-7 weeks of age). Alternatively, test compound was orally administered to mice according to standard procedures known to the skilled person.
[…] Mice were anaesthetised approximately 3-4 min prior to blood and brain harvest with an intraperitoneal injection of ketamine and xylazine (133 mg/kg and 10 mg/kg, respectively). The whole brain was placed into pre-weighed polypropylene vials and stored at −20° C. until analysis. On the day of analysis, the whole brain was homogenised in 3 parts of water (on ice to reduce the potential for ex vivo brain degradation) and an aliquot of the brain homogenate and plasma was analysed for compound concentration by LCMS. Standards were prepared by spiking blank brain homogenate and both samples and standards were processed by adding acetonitrile to the tissue homogenate, centrifuging and injecting an aliquot of the supernatant onto the LCMS.
To ensure complete recovery of compound from the brain, brain homogenate was spiked with compound (in 50% acetonitrile:50% water) to a nominal concentration of 500 ng/mL. The concentration of compound in the supernatant was then determined by LCMS and compared to the supernatant concentration when compound was added following precipitation with acetonitrile.
as §6

[3] = Metabolism in hepatocytes (predicted EH), rat; format: in vitro ADME
[4] = midazolam, read-out: CYP3A4-Midazolam IC50
[5] = testosterone, read-out: CYP3A4-Testosterone IC50

T1 sequence (P10635 whole entry): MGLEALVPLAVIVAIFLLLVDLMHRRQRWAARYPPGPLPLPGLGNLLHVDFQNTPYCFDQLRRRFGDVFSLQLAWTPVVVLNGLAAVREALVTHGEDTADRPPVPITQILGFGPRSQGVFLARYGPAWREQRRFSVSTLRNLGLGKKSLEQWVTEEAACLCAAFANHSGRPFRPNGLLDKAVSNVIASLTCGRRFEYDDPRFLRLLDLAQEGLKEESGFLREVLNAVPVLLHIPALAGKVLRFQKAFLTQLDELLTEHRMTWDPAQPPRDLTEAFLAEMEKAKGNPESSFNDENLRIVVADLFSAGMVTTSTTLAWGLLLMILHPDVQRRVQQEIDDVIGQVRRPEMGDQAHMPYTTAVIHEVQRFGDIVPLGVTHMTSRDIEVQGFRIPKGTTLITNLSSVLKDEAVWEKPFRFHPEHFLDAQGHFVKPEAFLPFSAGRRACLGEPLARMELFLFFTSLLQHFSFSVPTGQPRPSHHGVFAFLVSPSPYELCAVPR
CYP3A4, sequence (P08684 2-503): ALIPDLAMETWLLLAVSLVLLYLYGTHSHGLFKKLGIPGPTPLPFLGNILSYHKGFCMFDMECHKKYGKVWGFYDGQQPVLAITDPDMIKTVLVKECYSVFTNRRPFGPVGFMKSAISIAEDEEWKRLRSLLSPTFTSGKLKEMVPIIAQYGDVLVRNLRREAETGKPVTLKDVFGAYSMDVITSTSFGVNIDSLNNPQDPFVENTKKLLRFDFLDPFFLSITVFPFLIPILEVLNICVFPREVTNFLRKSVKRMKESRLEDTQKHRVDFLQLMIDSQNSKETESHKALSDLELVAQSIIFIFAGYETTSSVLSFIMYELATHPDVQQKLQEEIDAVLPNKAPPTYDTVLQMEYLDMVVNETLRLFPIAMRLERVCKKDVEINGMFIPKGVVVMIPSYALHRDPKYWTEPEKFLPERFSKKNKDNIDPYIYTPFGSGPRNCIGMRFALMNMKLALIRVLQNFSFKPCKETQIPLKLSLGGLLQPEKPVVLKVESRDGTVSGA

IC50 (CYP2D6) [µM] | IC50 (CYP3A4; substrate not stated, read-out: CYP3A4 IC50) [µM] | Metabolism (Predicted EH), Microsomes: Human [1] | Kp at 5 min [2] | Kp at 1 h [2] | Metabolism (Predicted EH), Hepatocytes: Rat [3] | IC50 (CYP3A4; [4]) [µM] | IC50 (CYP3A4; [5]) [µM] | Kp at 0.5 h [2] | Kp at 4 h [2] | IC50 (CYP2D6; human, liver microsomes, probe dextromethorphan 3 μM) [µM] | SMILES
7.4 | > 30 | Human <0.31 | 3.46 | 2.02 | Rat = 0.45 | – | – | – | – | – | CN(C)Cc1nc2c(O)c(Cl)cc(Cl)c2c(=O)n1CC1CC1 [Compound F4267]
9.5 | – | Human <0.2 | – | – | Rat = 0.35 | > 30 | > 30 | 0.65 | 0.64 | – | CCNCc1nc2c(O)c(Cl)cc(Cl)c2c(=O)n1CC [Compound F4495]
– | – | 0.75 | 0.65 | 0.29 | – | – | – | – | – | – | C#CCN(C)Cc1nc2c(O)c(Cl)cc(Cl)c2c(=O)n1CC1CC1 [Compound F4387]
– | – | Human <0.2 | – | – | Rat = 0.29 | – | – | – | – | 40 | CNCc1nc2c(O)c(Cl)cc(Cl)c2c(=O)n1C [Compound F4161]
– | – | – | – | – | – | – | – | 0.23 | 0.22 | – | Br.CCn1c(CNC)nc2c(O)c(Cl)cc(Cl)c2c1=O [Compound F4486]
> 30 | – | Human <0.2 | – | – | Rat = 0.35 | 4.4 | 8.6 | 1.42 | 1.97 | – | Br.CCNCc1nc2c(O)c(Cl)cc(Cl)c2c(=O)n1C [Compound F4496]
> 20 | – | Human <0.2 | 2.96 | 2.63 | Rat = 0.30 | ~20 | > 20 | – | – | – | CCn1c(CN(C)C)nc2c(O)c(Cl)cc(Cl)c2c1=O.Cl [Compound F4268]
> 30 | – | Human <0.2 | 2.96 | 2.12 | Rat = 0.35 | > 30 | > 30 | – | – | – | CN(C)Cc1nc2c(O)c(Cl)cc(Cl)c2c(=O)n1C [Compound F4269, 5,7-Dichloro-2-(dimethylamino)methyl-8-hydroxy-3-methylquinazolin-4(3H)-one]

SMILES | IC50 (CYP2D6) [µM] | IC50 (CYP3A4; substrate not stated, read-out: CYP3A4 IC50) [µM] | Metabolism (Predicted EH), Microsomes: Human [1] | Kp at 5 min [2] | Kp at 1 h [2] | Metabolism (Predicted EH), Hepatocytes: Rat [3] | IC50 (CYP3A4; [4]) [µM] | IC50 (CYP3A4; [5]) [µM] | Kp at 0.5 h [2] | Kp at 4 h [2] | IC50 (CYP2D6; human, liver microsomes, probe dextromethorphan 3 μM) [µM]
CCN(CC)Cc1nc2c(O)c(Cl)cc(Cl)c2c(=O)n1CC1CC1 [Compound F4385] | 5.1 | – | Human <0.2 | – | – | Rat = 0.35 | 21.5 | > 30 | 0.31 | 0.42 | –

From patent US9145375B2, “Quinazolinone compounds” (PRANA BIOTECHNOLOGY LIMITED, priority 2008, dated 2015)
